Positions of bridges follow the written chain, without caps; N, C: chain ends. No end group written: not given here.
B1: BMP-7: recombinant human mature BMP-7 (BMP-7 or TDF-1), positive control therapy (protein)
chain: STGSKQRSQNRSKTPKNQEALRMANVAENSSSDQRQACKKHELYVSFRDLGWQDWIIAPEGYAAYYCEGECAFPLNSYMNATNHAIVQTLVHFINPETVPKPCCAPTQLNAISVLYFDDSSNVILKKYRNMVVRACGCH

Tested on: rats with coronary artery ligation
Assay: Left anterior descending (LAD) coronary occlusion model of myocardial injury
Assay type: in vivo, rat
Details: for reduction in AN/AR ratio as compared to PBS-treated animals: Day 7
Method: Schematic of the Left Anterior Descending […] (LAD) occlusion model of myocardial injury. The image represents a cross section through the heart of rats showing that treatment with TDFRP or BMP prevents ischemic injury. Left anterior descending arteries were occluded for 20 minutes to induce ischemia. Upon removal of the ligature, blood flow into the heart causes reperfusion injury and apoptosis. After seven days, the heart was stained with Evan's blue dye to differentiate the perfused, unaffected area from the occluded region (area at risk). Four doses of TDFRP (SEQ ID NO:45) were used in the treated animals (pre-occlusion, and 24, 48 and 72 hrs post-occlusion). A) left anterior descending coronary artery ligated to create ischemia, B) infarct areas (IA), C) the unaffected, perfused region. Dyed blue at sacrifice, D) ventricular lumen, E) approximate regional boundary, F) the affected (ischemic) region (AR). Where reperfusion injury leads to apoptosis
The efficacy of TDFRP compound (SEQ ID NO:45) in ameliorating the effects of myocardial ischemia was investigated in the rat after ligation of the coronary artery. […] unmanipulated rats, sorted into two large groups by initial body weight (>300 g pre-surgery) were evaluated. Fourteen rats underwent surgery on week, 12 rats underwent surgery on week 2 and rats were sorted into 3 treatment groups: Group 1, PBS; Group 2, positive control TDF-1; Group 3, test article TDFRP (SEQ ID NO:45) (see Table 13).
Three days prior to surgery, a serum sample was collected from the tail vein of each rat (pre-bleed). On the day of surgery, each rat was administered compound intravenously 2 hr prior to surgery. Surgery was performed sequentially after intubation and ventilation with 0.5% isofluorane anesthetic. Lead II ECG was monitored throughout the surgery. A thoracotomy was performed and the main left coronary artery was occluded for 20 min using a snare technique (FIG. 19). Successful occlusion of the artery was confirmed by ST elevation in lead II ECG within the first 5 minutes of ligation, and by frequent ventricular arrhythmia after 10 minutes of ligation. The snare was released to restore blood flow. The original suture loop was left in place for subsequent re-occlusion on Day 7. After initiation of reperfusion, the chest cavity was closed with 2 layers of suture. Rats were weaned from the ventilator and observed until fully conscious and mobile. Antibiotic (QD) and analgesic (Q8D) were provided. Additional serum samples were collected 6, 24, 72 and 120 hours post occlusion. Additional compound, positive control or vehicle treatments were delivered by intravenous injection in the tail vein at 24, 72 and 120 hours post occlusion.
On Day 7, each rat was anesthetized (ketamine:xyline), the chest cavity re-opened and a terminal blood sample (1 ml) was withdrawn from the abdominal vein. Gross pathology (i.e. inflammation) was noted and graded on a 4 point inflammation scale: 0=no inflammation, 1=slight, 2=moderate, 3=severe and 4=complete pericarditis. The left coronary artery was then re-occluded using the existing stitch and a concentrated solution of Evans Blue dye in saline (20 mg/ml; 0.5 ml/rat) was injected into the heart apex to stain the non-ischemic cardiac tissue blue. The heart was then arrested by injection of a saturated solution of potassium chloride into the right ventricle. The heart was then excised, wrapped in cellophane and stored at −20° C. for 1.5 hour. The cold heart was cut into 10 cross-sectional slices (2 mm/slice) and each section was numbered and incubated separately in triphenyltetrazolium chloride (1% TTC in PBS) for 10 minutes at 37° C. prior to fixing in 4% formaldehyde. Subsequently, each slice was photographed. For each slice, the “area at risk (AR)” and the “area occupied by necrosis (AN)” were measured by morphometry. The ratio of AN to AR is a measure of the degree of damage resulting from the occlusion (FIG. 20).

Molecule	reduction in AN/AR ratio as compared to PBS-treated animals (10 mg/kg i.v.) [%]	reduction in inflammation score as compared to PBS-treated animals (10 mg/kg i.v., Day 7, 4 point inflammation scale) [%]	inflammation and cytotoxic effects toward cardiomyocytes following myocardial infarction (myocardial ischemia and reperfusion injury)	degree of cardiac inflammation (rat, in vivo)	necrotic area to area at risk ratio (IA/AR) (rat, in vivo)	reduction in AN/AR ratio as compared to PBS-treated animals (160 μg/kg i.v.) [%]
CYFDDSSNVLCKKYRS (disulfide 1-11 (inferred); not fully specified) [SEQ ID NO:45]	84	78	ameliorate inflammation and cytotoxic effects	reduces	reduces	
B1						7

— patent US8911953B2, “TDF-related compounds and analogs thereof, analogs and bioactive fragments” (Thrasos Innovation, Inc., priority 2005, dated 2014)
